Data as given in PubChem BioAssay AID256 (DTP/NCI, 2004).
Several values for one entry are separate records, joined by “and”; a condition that tells them apart may be missing. Identical values can stand only once. Toxic doses and inconclusive results are not listed. The calls were made as follows: active = survival T/C of 150% or more; inactive = T/C below 125% in these data.

System: CD2F1 mice, L1210 leukemia ip, survival T/C
Assay: NCI In Vivo Anticancer Drug Screen. Data for tumor model L1210 Leukemia (intraperitoneal) in CD2F1 (CDF1) mice
Conditions: higher = longer survival
Summary of the method: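 Compound-dosed mice with transplantable tumor versus matched vehicle controls; endpoint ratio T/C reported.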

[1] = endpoint: mean survival time, dose: 25.0 mg/kg/injection, schedule: Q01DX009 (ip), vehicle: saline with Tween-80
[2] = endpoint: mean survival time, dose: 50.0 mg/kg/injection, schedule: Q01DX009 (ip), vehicle: saline with Tween-80
[3] = endpoint: mean survival time, dose: 100.0 mg/kg/injection, schedule: Q01DX001 (ip), vehicle: saline with Tween-80
[4] = endpoint: mean survival time, dose: 100.0 mg/kg/injection, schedule: Q04DX003 (ip), vehicle: saline with Tween-80
[5] = endpoint: mean survival time, dose: 200.0 mg/kg/injection, schedule: Q01DX001 (ip), vehicle: saline with Tween-80
[6] = endpoint: mean survival time, dose: 200.0 mg/kg/injection, schedule: Q04DX003 (ip), vehicle: saline with Tween-80
[7] = endpoint: mean survival time, dose: 25.0 mg/kg/injection, schedule: Q04DX003 (ip), vehicle: saline
[8] = endpoint: mean survival time, dose: 100.0 mg/kg/injection, schedule: Q04DX003 (ip), vehicle: saline
[9] = endpoint: mean survival time, dose: 200.0 mg/kg/injection, schedule: Q04DX003 (ip), vehicle: saline
[10] = endpoint: mean survival time, dose: 50.0 mg/kg/injection, schedule: Q01DX009 (ip), vehicle: saline
[11] = endpoint: mean survival time, dose: 100.0 mg/kg/injection, schedule: Q01DX009 (ip), vehicle: saline
[12] = endpoint: mean survival time, dose: 100.0 mg/kg/injection, schedule: Q01DX009 (ip), vehicle: saline with Tween-80

Measured: T/C

O=C1OC(=O)C2CCCC1C2
inactive: endpoint: mean survival time, dose: 100.0 mg/kg/injection, schedule: Q01DX001 (ip), vehicle: saline 105 % of control | endpoint: mean survival time, dose: 200.0 mg/kg/injection, schedule: Q01DX001 (ip), vehicle: saline 105 % of control | endpoint: mean survival time, dose: 400.0 mg/kg/injection, schedule: Q01DX001 (ip), vehicle: saline 100 % of control

O=C(c1ccccc1[N+](=O)[O-])C(Br)C(Br)c1ccc(Cl)c(Cl)c1 (stereo not given)
inactive: [1] 87 % of control and 94 % of control | [2] 100 % of control | endpoint: mean survival time, dose: 50.0 mg/kg/injection, schedule: Q04DX003 (ip), vehicle: saline with Tween-80 90 % of control | [3] 107 % of control | endpoint: mean survival time, dose: 100.0 mg/kg/injection, schedule: Q04DX002 (ip), vehicle: saline with Tween-80 89 % of control and 100 % of control | [4] 87 % of control | [5] 95 % of control | endpoint: mean survival time, dose: 200.0 mg/kg/injection, schedule: Q04DX002 (ip), vehicle: saline with Tween-80 86 % of control and 96 % of control | [6] 90 % of control | endpoint: mean survival time, dose: 400.0 mg/kg/injection, schedule: Q04DX002 (ip), vehicle: saline with Tween-80 86 % of control and 90 % of control

C(CC1CO1)CC1OC1CC1CO1 (stereo not given)
inactive: endpoint: mean survival time, dose: 39.0 mg/kg/injection, schedule: Q01DX009 (ip), vehicle: saline 109 % of control | endpoint: mean survival time, dose: 75.0 mg/kg/injection, schedule: Q01DX001 (ip), vehicle: saline 109 % of control | endpoint: mean survival time, dose: 150.0 mg/kg/injection, schedule: Q01DX001 (ip), vehicle: saline 119 % of control
active: endpoint: mean survival time, dose: 133.0 mg/kg/injection, schedule: Q01DX009 (ip), vehicle: saline 156 % of control

CCCC(CC)(C[NH-])C[NH-].[Cl][Pt+2][Cl]
inactive: endpoint: mean survival time, dose: 6.25 mg/kg/injection, schedule: Q04DX003 (ip), vehicle: saline 120 % of control and 109 % of control | endpoint: mean survival time, dose: 12.5 mg/kg/injection, schedule: Q04DX003 (ip), vehicle: saline 121 % of control and 109 % of control | [7] 114 % of control | [9] 114 % of control and 105 % of control
active: [8] 158 % of control

C=CCN(CC=C)Cc1cccc(N(CCCl)CCCl)c1 (tested in a mixture with another compound)
inactive: endpoint: mean survival time, dose: 50.0 mg/kg/injection, schedule: Q01DX009 (ip), vehicle: Klucel (hydroxypropylcellulose) (HPC) 109 % of control | endpoint: mean survival time, dose: 100.0 mg/kg/injection, schedule: Q01DX009 (ip), vehicle: Klucel (hydroxypropylcellulose) (HPC) 114 % of control

O=C(O)CCCc1ccc(Oc2ccccc2)cc1
inactive: endpoint: mean survival time, dose: 100.0 mg/kg/injection, schedule: Q01DX009 (ip), vehicle: other 94 % of control | endpoint: mean survival time, dose: 100.0 mg/kg/injection, schedule: Q04DX003 (ip), vehicle: other 106 % of control | endpoint: mean survival time, dose: 200.0 mg/kg/injection, schedule: Q01DX009 (ip), vehicle: other 95 % of control | endpoint: mean survival time, dose: 200.0 mg/kg/injection, schedule: Q04DX003 (ip), vehicle: other 93 % of control | endpoint: mean survival time, dose: 400.0 mg/kg/injection, schedule: Q01DX009 (ip), vehicle: other 96 % of control | endpoint: mean survival time, dose: 400.0 mg/kg/injection, schedule: Q04DX003 (ip), vehicle: other 95 % of control

COCCCNC(=O)CS(=O)(=O)c1ccc(C)cc1
inactive: [8] 102 % of control | [9] 98 % of control | endpoint: mean survival time, dose: 400.0 mg/kg/injection, schedule: Q04DX003 (ip), vehicle: saline 102 % of control

NCCc1cc(O)c(O)cc1O
inactive: [10] 93 % of control | [11] 104 % of control

Brc1ccccc1C=C1c2ccccc2-c2ccccc21
inactive: [12] 100 % of control | endpoint: mean survival time, dose: 200.0 mg/kg/injection, schedule: Q01DX009 (ip), vehicle: saline with Tween-80 102 % of control | endpoint: mean survival time, dose: 400.0 mg/kg/injection, schedule: Q01DX009 (ip), vehicle: saline with Tween-80 106 % of control

COc1ccc(C[As+](c2ccccc2)(c2ccccc2)c2ccccc2)cc1
inactive: endpoint: mean survival time, dose: 5.0 mg/kg/injection, schedule: Q01DX001 (ip), vehicle: saline 102 % of control | endpoint: mean survival time, dose: 10.0 mg/kg/injection, schedule: Q01DX001 (ip), vehicle: saline 95 % of control | endpoint: mean survival time, dose: 20.0 mg/kg/injection, schedule: Q01DX001 (ip), vehicle: saline 98 % of control | endpoint: mean survival time, dose: 40.0 mg/kg/injection, schedule: Q01DX001 (ip), vehicle: saline 100 % of control

Nc1ccc2c(c1)CN1C(=O)c3ccccc3C1=N2
inactive: endpoint: median survival time, dose: 12.5 mg/kg/injection, schedule: Q01DX009 (ip), vehicle: saline with Tween-80 111 % of control | endpoint: median survival time, dose: 25.0 mg/kg/injection, schedule: Q01DX009 (ip), vehicle: saline with Tween-80 115 % of control | endpoint: median survival time, dose: 50.0 mg/kg/injection, schedule: Q01DX009 (ip), vehicle: saline with Tween-80 116 % of control | endpoint: median survival time, dose: 100.0 mg/kg/injection, schedule: Q01DX009 (ip), vehicle: saline with Tween-80 108 % of control

NNC(=O)COc1ccccc1
inactive: [7] 101 % of control | endpoint: mean survival time, dose: 50.0 mg/kg/injection, schedule: Q04DX003 (ip), vehicle: saline 101 % of control | [8] 103 % of control

Cc1ccc(C2=CSC3=NCCN23)cc1Cl
inactive: endpoint: median survival time, dose: 6.25 mg/kg/injection, schedule: Q01DX005 (ip), vehicle: saline 116 % of control | endpoint: median survival time, dose: 12.5 mg/kg/injection, schedule: Q01DX005 (ip), vehicle: saline 108 % of control | endpoint: median survival time, dose: 25.0 mg/kg/injection, schedule: Q01DX005 (ip), vehicle: saline 109 % of control | endpoint: median survival time, dose: 50.0 mg/kg/injection, schedule: Q01DX005 (ip), vehicle: saline 100 % of control

CC(COP(N)(=O)N(CCCl)CCCl)C(C)OCc1ccccc1 (stereo not given)
inactive: endpoint: mean survival time, dose: 15.62 mg/kg/injection, schedule: Q01DX001 (ip), vehicle: DMSO 101 % of control | endpoint: mean survival time, dose: 31.3 mg/kg/injection, schedule: Q01DX001 (ip), vehicle: DMSO 106 % of control | endpoint: mean survival time, dose: 62.5 mg/kg/injection, schedule: Q01DX001 (ip), vehicle: DMSO 101 % of control | endpoint: mean survival time, dose: 125.0 mg/kg/injection, schedule: Q01DX001 (ip), vehicle: DMSO 103 % of control | endpoint: mean survival time, dose: 250.0 mg/kg/injection, schedule: Q01DX001 (ip), vehicle: DMSO 95 % of control | endpoint: mean survival time, dose: 500.0 mg/kg/injection, schedule: Q01DX001 (ip), vehicle: DMSO 93 % of control

CNC(C(=O)O)c1ccccc1 (stereo not given)
inactive: [1] 101 % of control | [2] 100 % of control | [12] 92 % of control and 94 % of control | [4] 92 % of control | [6] 101 % of control | endpoint: mean survival time, dose: 400.0 mg/kg/injection, schedule: Q04DX003 (ip), vehicle: saline with Tween-80 89 % of control

CC1(C)OC2C(/C=C\C(=O)c3ccccc3)OC(n3ccc(=O)[nH]c3=O)C2O1 (stereo not given)
inactive: endpoint: mean survival time, dose: 12.5 mg/kg/injection, schedule: Q01DX005 (ip), vehicle: distilled water + Tween-80 102 % of control | endpoint: mean survival time, dose: 25.0 mg/kg/injection, schedule: Q01DX005 (ip), vehicle: distilled water + Tween-80 100 % of control | endpoint: mean survival time, dose: 50.0 mg/kg/injection, schedule: Q01DX005 (ip), vehicle: distilled water + Tween-80 96 % of control | endpoint: mean survival time, dose: 100.0 mg/kg/injection, schedule: Q01DX005 (ip), vehicle: distilled water + Tween-80 103 % of control

COc1ccc(N=C=S)cc1N=C=S
inactive: endpoint: mean survival time, dose: 6.25 mg/kg/injection, schedule: Q01DX001 (ip), vehicle: saline with Tween-80 98 % of control | endpoint: mean survival time, dose: 12.5 mg/kg/injection, schedule: Q01DX001 (ip), vehicle: saline with Tween-80 97 % of control | endpoint: mean survival time, dose: 25.0 mg/kg/injection, schedule: Q01DX001 (ip), vehicle: saline with Tween-80 101 % of control

CCO[Si](C)(OCC)OCC
inactive: [10] 101 % of control | [11] 101 % of control | endpoint: mean survival time, dose: 200.0 mg/kg/injection, schedule: Q01DX009 (ip), vehicle: saline 96 % of control

CC(C)=C(CO)CCC(C)C
inactive: [4] 100 % of control | [6] 103 % of control

O=C1c2ccccc2CCC1(Br)Cc1ccccc1 (stereo not given)
inactive: [3] 98 % of control | [5] 96 % of control | endpoint: mean survival time, dose: 400.0 mg/kg/injection, schedule: Q01DX001 (ip), vehicle: saline with Tween-80 94 % of control
